For series [1] the following is noted: Friedman et al, July 1978; cited from earlier work.
Series [2] is described as follows: Bioassay: distribution of I-123-labeled compounds in organs of rats after tail vein injection (percent dose/gram, brain/blood ratio). The format is in vivo, Female Sprague-Dawley rats. The note with it: for tissue uptake at 1 h / tissue uptake at 5 min: rat, iv, 0.05 to 1.0 mCi, two rats; for tissue uptake at 1 h / Brain/Blood Ratio 60 min.: 60 minutes post-injection; for Brain/Blood Ratio 5 min. / tissue uptake at 5 min: 5 minutes post-injection. The protocol: Female Sprague-Dawley rats weighing approximately 150 g were anesthetized with sodium pentobarbital and were injected in a tail vein with from 0.05 to 1.0 mCi (in a volume of 0.2 to 0.5 ml) of the I-123-labeled compound. Two specimens were utilized for each test.
Two animals each were sacrificed at 5 minutes and 60 minutes post-injection, the tails discarded and the amount of activity in various organs determined. Each organ was counted at a standardized geometry with a sodium iodide crystal scintillation counter adjusted for the 159 keV emission of I-123. The organs were also weighed to one thousandth of a gram and the activity calculated as a percent of administered dose per gram of organ weight.
The ratio of brain-to-blood activity was calculated as a percent of administered dose per gram.

For series [3] the following is noted: Robinson et al, J Nucl Med 17, p 1093 (1976); cited from earlier work.
Setting [4] is: blood, read-out: Percent Dose/Gram Blood 60 min.
Setting [5] is: brain, read-out: Percent Dose/Gram Brain 60 min.
Where [6] appears, read: heart, read-out: Percent Dose/Gram Heart 60 min.
[7] abbreviates: blood, read-out: Percent Dose/Gram Blood 5 min.
Setting [8] is: brain, read-out: Percent Dose/Gram Brain 5 min.
The mark [9] stands for this setting: heart, read-out: Percent Dose/Gram Heart 5 min.

Like-named read-outs stand apart in the source and are kept apart here.

Regarding 5-hydroxytryptophan, in series [1], the “activity carried across the blood/brain barrier” value is given as “carried some activity across the blood/brain barrier” and the decarboxylation in vivo entry is “decarboxylated in vivo”.
With `Cc1c([123I])c(=O)n(-c2ccccc2)n1C` [I--123-iodoantipyrine, I-123 labeled 4-iodoantipyrine, reference compound], the tissue uptake at 1 h in series [2] (setting [4]) was determined as 0.94 %ID/g; in series [2] (setting [5]), 0.17 %ID/g; in series [2] (setting [6]), 0.53 %ID/g. In series [3], the “concentration in the brain” value was “suboptimal concentration in the brain”. In series [3], the in vivo deiodination entry is recorded as “rapid in vivo deiodination”.
As to `CC1CCCC(C)N1Cc1ccccc1[123I]` (stereo not drawn) [I--123-N--o-iodobenzyl-2,6-dimethylpiperidine], the “Brain/Blood Ratio 5 min.” value in series [2] worked out at 3.32. Moreover, the “Brain/Blood Ratio 60 min.” value in series [2] is reported as 1.59. Further, the tissue uptake at 5 min was 0.31 %ID/g in series [2] (setting [7]), 1.01 %ID/g in series [2] (setting [8]) and 1.14 %ID/g in series [2] (setting [9]). The tissue uptake at 1 h in series [2] (setting [4]) is 0.21 %ID/g; in series [2] (setting [5]), 0.32 %ID/g; in series [2] (setting [6]) it was 0.44 %ID/g.
With `[123I]c1ccccc1CCN(CCc1ccccc1)CCc1ccccc1` [I--123-N,N--di-β-phenethyl-o-iodo-β-phenethylamine], the “Brain/Blood Ratio 5 min.” value in series [2] was 0.24. The “Brain/Blood Ratio 60 min.” value in series [2] is recorded as 0.17. The results for the tissue uptake at 5 min in series [2] (setting [7]), in series [2] (setting [8]) and in series [2] (setting [9]) were 0.83 %ID/g, 0.2 %ID/g and 1.18 %ID/g, respectively. Also, the results for the tissue uptake at 1 h in series [2] (setting [4]), in series [2] (setting [5]) and in series [2] (setting [6]) were 0.65 %ID/g, 0.11 %ID/g and 0.62 %ID/g, respectively.
With `[123I]c1ccc(N(Cc2ccccc2)Cc2ccccc2)cc1` [I--123-N,N--dibenzyl-p-iodoaniline], the “Brain/Blood Ratio 5 min.” value in series [2] is reported as 0.53. Besides, the “Brain/Blood Ratio 60 min.” value in series [2] is given as 0.54. Also, the tissue uptake at 5 min in series [2] (setting [7]) came to 0.66 %ID/g; in series [2] (setting [8]), 0.35 %ID/g; in series [2] (setting [9]), 2.1 %ID/g. Besides, the results for the tissue uptake at 1 h in series [2] (setting [4]), in series [2] (setting [5]) and in series [2] (setting [6]) were 0.41 %ID/g, 0.22 %ID/g and 0.46 %ID/g, respectively.
Turning to `[123I]c1ccccc1CCN1CCCCC1` [I--123-N--o-iodo-β-phenethylpiperidine], the “Brain/Blood Ratio 5 min.” value in series [2] stood at 2.35. Further, the tissue uptake at 5 min was found to be 0.46 %ID/g in series [2] (setting [7]), 1.08 %ID/g in series [2] (setting [8]) and 1.68 %ID/g in series [2] (setting [9]).
In the case of `Nc1ccccc1[123I]` [I--123-o-iodoaniline], the “Brain/Blood Ratio 5 min.” value in series [2] is given as 0.28. Further, in series [2], the “Brain/Blood Ratio 60 min.” value worked out at 0.07. Further, the tissue uptake at 5 min in series [2] (setting [7]) turned out to be 1.7 %ID/g; in series [2] (setting [8]) it was 0.47 %ID/g; in series [2] (setting [9]), 1.02 %ID/g. Moreover, the tissue uptake at 1 h in series [2] (setting [4]) was found to be 0.44 %ID/g; in series [2] (setting [5]), 0.03 %ID/g; in series [2] (setting [6]), 0.17 %ID/g.
Consider `C[C@H](N)Cc1ccc([123I])cc1` [I--123-S--p-iodoamphetamine, I-123-S-p-iodoamphetamine], for which, in series [2], the “Brain/Blood Ratio 5 min.” value stood at 7.04. For the same molecule, the “Brain/Blood Ratio 60 min.” value in series [2] turned out to be 11.30. In addition, the tissue uptake at 5 min in series [2] (setting [7]) was determined as 0.17 %ID/g; in series [2] (setting [8]) it was 1.22 %ID/g; in series [2] (setting [9]) it was 1.52 %ID/g. The values for the tissue uptake at 1 h in series [2] (setting [4]), in series [2] (setting [5]) and in series [2] (setting [6]) were 0.17 %ID/g, 1.88 %ID/g and 0.86 %ID/g, respectively.
Turning to `CCNCc1ccccc1[123I]` [I--123-N--ethyl-o-iodobenzylamine], the “Brain/Blood Ratio 5 min.” value in series [2] is recorded as 4.22. Further, in series [2], the “Brain/Blood Ratio 60 min.” value was 1.31. Moreover, the tissue uptake at 5 min in series [2] (setting [7]) was determined as 0.25 %ID/g; in series [2] (setting [8]) it was 1.06 %ID/g; in series [2] (setting [9]), 0.79 %ID/g. For the same molecule, the tissue uptake at 1 h in series [2] (setting [4]) was found to be 0.34 %ID/g; in series [2] (setting [5]), 0.44 %ID/g; in series [2] (setting [6]), 0.44 %ID/g.
With `CC(C)N(Cc1ccccc1[123I])C(C)C` [I--123-N,N--diisopropyl-o-iodobenzylamine], the “Brain/Blood Ratio 5 min.” value in series [2] was 5.73. In series [2], the “Brain/Blood Ratio 60 min.” value amounted to 1.31. For the same molecule, the tissue uptake at 5 min was found to be 0.25 %ID/g in series [2] (setting [7]), 1.4 %ID/g in series [2] (setting [8]) and 2.12 %ID/g in series [2] (setting [9]). In addition, the tissue uptake at 1 h in series [2] (setting [4]) is 0.35 %ID/g; in series [2] (setting [5]), 0.46 %ID/g; in series [2] (setting [6]) it was 0.46 %ID/g.
In the case of `CC(Cc1ccccc1)NCc1ccccc1[123I]` (racemic) [I--123-N--o-iodobenzylamphetamine (dl)], the “Brain/Blood Ratio 5 min.” value in series [2] is given as 3.93. For the same molecule, the “Brain/Blood Ratio 60 min.” value in series [2] is 1.89. Further, the figures for the tissue uptake at 5 min in series [2] (setting [7]), in series [2] (setting [8]) and in series [2] (setting [9]) were 0.27 %ID/g, 1.06 %ID/g and 0.72 %ID/g, respectively. The tissue uptake at 1 h in series [2] (setting [4]) was 0.19 %ID/g; in series [2] (setting [5]) it was 0.36 %ID/g; in series [2] (setting [6]), 0.37 %ID/g.
